Experiments:
EPHA4 = target: T1, EPHA4 (Homo sapiens, UniProt P54764); test: KinomeScan; type: binding; conditions: read-out: % control
T1 construct: purchased DiscoveRx KINOMEscan

MST3 = target: T2, MST3 (Homo sapiens, UniProt Q9Y6E0); test: KinomeScan; type: binding; conditions: read-out: % control
T2 construct: purchased DiscoveRx KINOMEscan

LIMK1 = target: T3, LIMK1 (Homo sapiens, UniProt P53667); test: KinomeScan; type: binding; conditions: read-out: % control
T3 construct: purchased DiscoveRx KINOMEscan

STK16 = target: T4, STK16 (Homo sapiens, UniProt O75716); test: KinomeScan; type: binding; conditions: read-out: % control
T4 construct: purchased DiscoveRx KINOMEscan

[1] = target: T5, RSK4(Kin.Dom.1-N-terminal) (Homo sapiens, UniProt Q9UK32); test: KinomeScan; type: binding; conditions: read-out: % control
T5 construct: RSK4(Kin.Dom.1-N-terminal); purchased DiscoveRx KINOMEscan

FLT4 = target: T6, FLT4 (Homo sapiens, UniProt P35916); test: KinomeScan; type: binding; conditions: read-out: % control
T6 construct: purchased DiscoveRx KINOMEscan

PIM2 = target: T7, PIM2 (Homo sapiens, UniProt Q9P1W9); test: KinomeScan; type: binding; conditions: read-out: % control
T7 construct: purchased DiscoveRx KINOMEscan

EPHB3 = target: T8, EPHB3 (Homo sapiens, UniProt P54753); test: KinomeScan; type: binding; conditions: read-out: % control
T8 construct: purchased DiscoveRx KINOMEscan

PRKCD = target: T9, PRKCD (Homo sapiens, UniProt Q05655); test: KinomeScan; type: binding; conditions: read-out: % control
T9 construct: purchased DiscoveRx KINOMEscan

PLK2 = target: T10, PLK2 (Homo sapiens, UniProt Q9NYY3); test: KinomeScan; type: binding; conditions: read-out: % control
T10 construct: purchased DiscoveRx KINOMEscan

ARK5 = target: T11, ARK5 (Homo sapiens, UniProt O60285); test: KinomeScan; type: binding; conditions: read-out: % control
T11 construct: purchased DiscoveRx KINOMEscan

[2] = target: T12, RPS6KA5(Kin.Dom.1-N-terminal) (Homo sapiens, UniProt O75582); test: KinomeScan; type: binding; conditions: read-out: % control
T12 construct: RPS6KA5(Kin.Dom.1-N-terminal); purchased DiscoveRx KINOMEscan

WNK1 = target: T13, WNK1 (Homo sapiens, UniProt Q9H4A3); test: KinomeScan; type: binding; conditions: read-out: % control
T13 construct: purchased DiscoveRx KINOMEscan

DAPK3 = target: T14, DAPK3 (Homo sapiens, UniProt O43293); test: KinomeScan; type: binding; conditions: read-out: % control
T14 construct: purchased DiscoveRx KINOMEscan

[3] = tested on: EGFR Y1068 phosphorylation in BaF3-TEL-EGFR cells; test: EGFR Y1068 auto-phosphorylation in transformed BaF3 cells; conditions: Mus musculus, BaF3, 4 h, read-out: EC50, phosphorylation of EGFR Y1068
ALK(C1156Y) = target: T15, ALK(C1156Y) (Homo sapiens, UniProt Q9UM73, C1156Y); test: KinomeScan; type: binding; conditions: read-out: % control
T15 construct: purchased DiscoveRx KINOMEscan

MLK1 = target: T16, MLK1 (Homo sapiens, UniProt P80192); test: KinomeScan; type: binding; conditions: read-out: % control
T16 construct: purchased DiscoveRx KINOMEscan

LYN = target: T17, LYN (Homo sapiens, UniProt P07948); test: KinomeScan; type: binding; conditions: read-out: % control
T17 construct: purchased DiscoveRx KINOMEscan

TYRO3 = target: T18, TYRO3 (Homo sapiens, UniProt Q06418); test: KinomeScan; type: binding; conditions: read-out: % control
T18 construct: purchased DiscoveRx KINOMEscan

ERK1 = target: T19, ERK1 (Homo sapiens, UniProt P27361); test: KinomeScan; type: binding; conditions: read-out: % control
T19 construct: purchased DiscoveRx KINOMEscan

H1975 tumor xenografts = test: H1975 cells inoculated xenograft mouse model; conditions: for Tumor weight (final, mean): 21-day treatment
NEK7 = target: T20, NEK7 (Homo sapiens, UniProt Q8TDX7); test: KinomeScan; type: binding; conditions: read-out: % control
T20 construct: purchased DiscoveRx KINOMEscan

BTK = target: T21, BTK (Homo sapiens, UniProt Q06187); test: KinomeScan; type: binding; conditions: read-out: % control
T21 construct: purchased Invitrogen (SelectScreen service)

SIK = target: T22, SIK (Homo sapiens, UniProt P57059); test: KinomeScan; type: binding; conditions: read-out: % control
T22 construct: purchased DiscoveRx KINOMEscan

LZK = target: T23, LZK (Homo sapiens, UniProt O43283); test: KinomeScan; type: binding; conditions: read-out: % control
T23 construct: purchased DiscoveRx KINOMEscan

[4] = target: T24, ABL1(H396P)-phosphorylated (Homo sapiens, UniProt P00519, H396P); test: KinomeScan; type: binding; conditions: read-out: % control
T24 construct: purchased DiscoveRx KINOMEscan

SYK = target: T25, SYK (Homo sapiens, UniProt P43405); test: KinomeScan; type: binding; conditions: read-out: % control
T25 construct: purchased DiscoveRx KINOMEscan

PCTK3 = target: T26, PCTK3 (Homo sapiens, UniProt Q07002); test: KinomeScan; type: binding; conditions: read-out: % control
T26 construct: purchased DiscoveRx KINOMEscan

MAP3K15 = target: T27, MAP3K15 (Homo sapiens, UniProt Q6ZN16); test: KinomeScan; type: binding; conditions: read-out: % control
T27 construct: purchased DiscoveRx KINOMEscan

FLT3(K663Q) = target: T28, FLT3(K663Q) (Homo sapiens, UniProt P36888, K663Q); test: KinomeScan; type: binding; conditions: read-out: % control
T28 construct: purchased DiscoveRx KINOMEscan

MKNK2 = target: T29, MKNK2 (Homo sapiens, UniProt Q9HBH9); test: KinomeScan; type: binding; conditions: read-out: % control
T29 construct: purchased DiscoveRx KINOMEscan

HUNK = target: T30, HUNK (Homo sapiens, UniProt P57058); test: KinomeScan; type: binding; conditions: read-out: % control
T30 construct: purchased DiscoveRx KINOMEscan

NEK9 = target: T31, NEK9 (Homo sapiens, UniProt Q8TD19); test: KinomeScan; type: binding; conditions: read-out: % control
T31 construct: purchased DiscoveRx KINOMEscan

PFCDPK1(P.falciparum) = target: T32, PFCDPK1(P.falciparum) (Plasmodium falciparum, UniProt P62344); test: KinomeScan; type: binding; conditions: read-out: % control
T32 construct: purchased DiscoveRx KINOMEscan

KIT(D816H) = target: T33, KIT(D816H) (Homo sapiens, UniProt P10721, D816H); test: KinomeScan; type: binding; conditions: read-out: % control
T33 construct: purchased DiscoveRx KINOMEscan

ACVR2A = target: T34, ACVR2A (Homo sapiens, UniProt P27037); test: KinomeScan; type: binding; conditions: read-out: % control
T34 construct: purchased DiscoveRx KINOMEscan

BMPR2 = target: T35, BMPR2 (Homo sapiens, UniProt Q13873); test: KinomeScan; type: binding; conditions: read-out: % control
T35 construct: purchased DiscoveRx KINOMEscan

ULK3 = target: T36, ULK3 (Homo sapiens, UniProt Q6PHR2); test: KinomeScan; type: binding; conditions: read-out: % control
T36 construct: purchased DiscoveRx KINOMEscan

BaF3-TEL-EGFR = test: Anti-proliferation, BaF3 isogenic cell lines (CellTiter-Glo); type: cell-based; conditions: Mus musculus, 72 hours, triplet testing
[5] = H1975 xenograft, 25.0 mg/kg/d oral
[6] = H1975 xenograft, 50.0 mg/kg/d oral
[7] = H1975 xenograft, 100 mg/kg/d oral

T22 sequence (P57059 whole entry): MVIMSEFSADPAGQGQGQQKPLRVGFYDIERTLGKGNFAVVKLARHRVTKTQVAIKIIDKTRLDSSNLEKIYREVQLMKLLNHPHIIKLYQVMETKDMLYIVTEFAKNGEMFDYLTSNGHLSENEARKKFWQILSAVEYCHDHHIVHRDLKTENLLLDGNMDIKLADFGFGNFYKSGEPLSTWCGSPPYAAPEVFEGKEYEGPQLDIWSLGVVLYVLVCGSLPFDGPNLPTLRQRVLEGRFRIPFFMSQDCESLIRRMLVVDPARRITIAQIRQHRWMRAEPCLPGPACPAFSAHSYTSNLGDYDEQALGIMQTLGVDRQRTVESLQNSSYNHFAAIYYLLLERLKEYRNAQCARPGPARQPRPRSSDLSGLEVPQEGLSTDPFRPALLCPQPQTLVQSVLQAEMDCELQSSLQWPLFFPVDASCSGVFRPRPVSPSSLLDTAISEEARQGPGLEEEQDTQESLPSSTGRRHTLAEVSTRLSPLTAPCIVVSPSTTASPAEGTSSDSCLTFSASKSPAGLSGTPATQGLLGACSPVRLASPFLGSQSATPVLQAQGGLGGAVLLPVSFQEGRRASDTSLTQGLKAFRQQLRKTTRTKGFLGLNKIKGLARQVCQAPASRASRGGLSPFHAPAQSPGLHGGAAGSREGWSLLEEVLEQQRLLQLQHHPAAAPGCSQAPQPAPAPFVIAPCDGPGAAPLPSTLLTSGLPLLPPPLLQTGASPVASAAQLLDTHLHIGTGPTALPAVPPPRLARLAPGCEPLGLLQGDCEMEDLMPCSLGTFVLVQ
T32 sequence (P62344 whole entry): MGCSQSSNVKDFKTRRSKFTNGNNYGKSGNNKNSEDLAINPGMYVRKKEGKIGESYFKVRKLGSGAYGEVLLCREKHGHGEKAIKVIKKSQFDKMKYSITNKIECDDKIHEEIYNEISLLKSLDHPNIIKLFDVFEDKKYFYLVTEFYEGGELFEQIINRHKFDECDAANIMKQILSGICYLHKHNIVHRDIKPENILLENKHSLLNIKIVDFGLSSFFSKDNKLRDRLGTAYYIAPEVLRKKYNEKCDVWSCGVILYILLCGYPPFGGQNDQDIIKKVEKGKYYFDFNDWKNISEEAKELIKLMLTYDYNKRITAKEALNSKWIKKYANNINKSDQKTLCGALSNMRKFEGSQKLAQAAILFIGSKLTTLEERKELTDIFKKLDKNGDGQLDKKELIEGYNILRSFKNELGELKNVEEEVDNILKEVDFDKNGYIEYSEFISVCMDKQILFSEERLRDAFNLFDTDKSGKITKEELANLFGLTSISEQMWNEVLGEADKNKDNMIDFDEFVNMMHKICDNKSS
T13 sequence (Q9H4A3 whole entry): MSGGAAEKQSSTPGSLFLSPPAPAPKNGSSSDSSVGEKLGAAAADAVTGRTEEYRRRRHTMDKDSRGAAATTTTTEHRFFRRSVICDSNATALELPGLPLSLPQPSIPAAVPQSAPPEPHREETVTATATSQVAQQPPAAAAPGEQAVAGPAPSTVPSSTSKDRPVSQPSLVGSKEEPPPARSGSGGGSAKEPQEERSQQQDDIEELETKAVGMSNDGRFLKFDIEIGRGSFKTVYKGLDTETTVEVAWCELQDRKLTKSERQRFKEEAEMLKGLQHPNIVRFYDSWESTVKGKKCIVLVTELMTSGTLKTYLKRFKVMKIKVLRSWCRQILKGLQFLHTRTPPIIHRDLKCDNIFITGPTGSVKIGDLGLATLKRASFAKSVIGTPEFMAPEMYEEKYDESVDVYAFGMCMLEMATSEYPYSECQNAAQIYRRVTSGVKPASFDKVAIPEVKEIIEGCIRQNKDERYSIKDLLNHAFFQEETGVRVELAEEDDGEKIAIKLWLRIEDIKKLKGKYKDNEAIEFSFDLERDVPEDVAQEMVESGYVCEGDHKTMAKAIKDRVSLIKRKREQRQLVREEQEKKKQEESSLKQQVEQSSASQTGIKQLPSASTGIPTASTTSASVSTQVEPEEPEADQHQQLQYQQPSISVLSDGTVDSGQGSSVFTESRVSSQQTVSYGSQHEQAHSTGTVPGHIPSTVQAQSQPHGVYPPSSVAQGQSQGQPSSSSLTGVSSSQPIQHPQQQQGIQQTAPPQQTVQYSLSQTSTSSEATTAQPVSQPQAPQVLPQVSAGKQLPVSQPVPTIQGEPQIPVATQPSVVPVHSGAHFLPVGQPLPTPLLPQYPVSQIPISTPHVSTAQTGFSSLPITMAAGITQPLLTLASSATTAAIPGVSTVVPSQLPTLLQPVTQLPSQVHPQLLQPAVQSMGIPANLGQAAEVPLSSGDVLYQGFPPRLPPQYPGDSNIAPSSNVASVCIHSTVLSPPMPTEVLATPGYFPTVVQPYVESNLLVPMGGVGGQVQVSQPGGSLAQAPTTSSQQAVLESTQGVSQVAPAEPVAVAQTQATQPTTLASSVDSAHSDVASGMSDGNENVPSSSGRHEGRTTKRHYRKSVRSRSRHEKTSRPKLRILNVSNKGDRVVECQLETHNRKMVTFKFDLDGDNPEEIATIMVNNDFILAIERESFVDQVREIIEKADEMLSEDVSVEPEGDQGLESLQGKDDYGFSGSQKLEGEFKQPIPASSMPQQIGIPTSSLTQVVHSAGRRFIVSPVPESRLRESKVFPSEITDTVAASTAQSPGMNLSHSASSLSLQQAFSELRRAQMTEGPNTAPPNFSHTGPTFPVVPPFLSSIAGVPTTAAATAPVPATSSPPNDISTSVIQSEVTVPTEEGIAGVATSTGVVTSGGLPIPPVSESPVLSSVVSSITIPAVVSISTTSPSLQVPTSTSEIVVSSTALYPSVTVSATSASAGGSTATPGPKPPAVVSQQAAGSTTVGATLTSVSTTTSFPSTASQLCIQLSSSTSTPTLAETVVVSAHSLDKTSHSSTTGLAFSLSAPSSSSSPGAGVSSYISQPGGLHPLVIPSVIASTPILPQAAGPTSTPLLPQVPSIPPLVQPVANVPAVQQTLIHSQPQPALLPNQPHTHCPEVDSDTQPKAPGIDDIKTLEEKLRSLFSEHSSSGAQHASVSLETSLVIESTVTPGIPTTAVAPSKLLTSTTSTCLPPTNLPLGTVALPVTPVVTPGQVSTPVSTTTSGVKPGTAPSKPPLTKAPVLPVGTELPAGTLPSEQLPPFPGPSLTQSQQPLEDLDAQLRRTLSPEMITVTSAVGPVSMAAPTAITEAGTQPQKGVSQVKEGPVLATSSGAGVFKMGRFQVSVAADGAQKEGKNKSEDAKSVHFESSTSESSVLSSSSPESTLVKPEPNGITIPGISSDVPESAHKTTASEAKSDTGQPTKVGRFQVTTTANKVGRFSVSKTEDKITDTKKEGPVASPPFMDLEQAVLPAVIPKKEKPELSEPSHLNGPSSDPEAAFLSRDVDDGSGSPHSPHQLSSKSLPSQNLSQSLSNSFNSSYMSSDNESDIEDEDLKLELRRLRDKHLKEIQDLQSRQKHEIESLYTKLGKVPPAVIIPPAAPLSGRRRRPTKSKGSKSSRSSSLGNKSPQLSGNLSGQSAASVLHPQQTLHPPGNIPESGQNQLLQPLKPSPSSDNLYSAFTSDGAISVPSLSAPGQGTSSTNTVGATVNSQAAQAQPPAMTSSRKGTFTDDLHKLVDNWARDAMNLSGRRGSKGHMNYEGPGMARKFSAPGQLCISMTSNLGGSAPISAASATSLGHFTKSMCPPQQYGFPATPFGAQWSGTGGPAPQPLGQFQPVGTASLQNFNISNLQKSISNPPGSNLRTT
T12 sequence (O75582 1-387 limits assumed): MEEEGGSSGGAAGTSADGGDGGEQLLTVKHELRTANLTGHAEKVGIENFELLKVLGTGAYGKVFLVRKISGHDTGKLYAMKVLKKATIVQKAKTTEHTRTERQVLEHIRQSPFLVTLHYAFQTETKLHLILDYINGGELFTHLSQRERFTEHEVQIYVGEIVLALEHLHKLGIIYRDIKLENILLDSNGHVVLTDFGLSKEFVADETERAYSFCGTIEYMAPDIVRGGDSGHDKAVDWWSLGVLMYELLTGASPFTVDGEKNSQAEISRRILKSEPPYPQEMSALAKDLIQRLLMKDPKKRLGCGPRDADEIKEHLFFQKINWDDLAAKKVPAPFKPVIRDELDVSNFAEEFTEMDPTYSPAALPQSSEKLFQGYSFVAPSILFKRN
T17 sequence (P07948 whole entry): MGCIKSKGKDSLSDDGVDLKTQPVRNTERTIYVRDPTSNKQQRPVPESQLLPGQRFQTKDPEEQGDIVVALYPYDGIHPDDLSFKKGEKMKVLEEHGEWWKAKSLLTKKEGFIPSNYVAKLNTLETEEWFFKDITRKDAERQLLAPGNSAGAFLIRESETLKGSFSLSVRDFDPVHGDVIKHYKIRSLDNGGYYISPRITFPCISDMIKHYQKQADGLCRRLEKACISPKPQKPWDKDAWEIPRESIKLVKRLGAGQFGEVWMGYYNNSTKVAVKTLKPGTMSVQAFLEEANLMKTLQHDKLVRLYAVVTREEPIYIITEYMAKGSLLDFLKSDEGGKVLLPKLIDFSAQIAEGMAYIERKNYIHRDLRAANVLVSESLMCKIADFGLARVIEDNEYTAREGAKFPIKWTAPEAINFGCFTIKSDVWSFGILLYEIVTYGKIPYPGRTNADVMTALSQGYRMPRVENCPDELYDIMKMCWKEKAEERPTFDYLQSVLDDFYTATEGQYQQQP
T5 sequence (Q9UK32 1-400 limits assumed): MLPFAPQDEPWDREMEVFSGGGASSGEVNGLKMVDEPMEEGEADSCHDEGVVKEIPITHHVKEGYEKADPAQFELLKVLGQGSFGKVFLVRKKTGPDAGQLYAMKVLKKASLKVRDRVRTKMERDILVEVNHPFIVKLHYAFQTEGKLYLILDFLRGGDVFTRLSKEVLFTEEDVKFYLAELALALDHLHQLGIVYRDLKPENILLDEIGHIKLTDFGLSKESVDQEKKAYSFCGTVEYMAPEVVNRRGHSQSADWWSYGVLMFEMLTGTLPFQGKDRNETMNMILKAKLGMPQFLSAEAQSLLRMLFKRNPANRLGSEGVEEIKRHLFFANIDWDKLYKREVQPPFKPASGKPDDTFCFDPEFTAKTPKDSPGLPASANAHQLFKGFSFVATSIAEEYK

C=CC(=O)N1CCC[C@@H](n2nc(-c3ccc(OCc4cccc(C)n4)c(Cl)c3)c3c(N)ncnc32)C1 [CHMFL-EGFR-26]
remaining binding at 1 µM (EPHA4): 100% | remaining binding at 1 µM (MST3): 39% | remaining binding at 1 µM (LIMK1): 99% | remaining binding at 1 µM (STK16): 100% | remaining binding at 1 µM [1]: 100% | remaining binding at 1 µM (FLT4): 99% | remaining binding at 1 µM (PIM2): 100% | remaining binding at 1 µM (EPHB3): 100% | remaining binding at 1 µM (PRKCD): 100% | remaining binding at 1 µM (PLK2): 89% | remaining binding at 1 µM (ARK5): 77% | remaining binding at 1 µM [2]: 100% | remaining binding at 1 µM (WNK1): 100% | remaining binding at 1 µM (DAPK3): 98% | EC50 [3]: 50 nM | remaining binding at 1 µM (ALK(C1156Y)): 100% | remaining binding at 1 µM (MLK1): 99% | remaining binding at 1 µM (LYN): 94% | remaining binding at 1 µM (TYRO3): 53% | remaining binding at 1 µM (ERK1): 91% | TGI (tumor growth inhibition rate) (H1975 tumor xenografts; [5]): 23.0% | Tumor weight (final, mean) (H1975 tumor xenografts; [5]): 1.37 g | TGI (tumor growth inhibition rate) (H1975 tumor xenografts; [6]): 48.9% | Tumor weight (final, mean) (H1975 tumor xenografts; [6]): 0.91 g | TGI (tumor growth inhibition rate) (H1975 tumor xenografts; [7]): 60.1% | Tumor weight (final, mean) (H1975 tumor xenografts; [7]): 0.71 g | toxicity (body weight) (H1975 tumor xenografts; H1975 xenograft, oral 25, 50 and 100mg/kg/day): did not show any apparent toxicity | hyperglycemia (H1975 tumor xenografts; preclinical mouse model study): no hyperglycemia phenomenon was observed | remaining binding at 1 µM (NEK7): 90% | remaining binding at 1 µM (BTK): 0.45% | remaining binding at 1 µM (SIK): 69% | remaining binding at 1 µM (LZK): 86% | remaining binding at 1 µM [4]: 100% | remaining binding at 1 µM (SYK): 94% | remaining binding at 1 µM (PCTK3): 94% | remaining binding at 1 µM (MAP3K15): 100% | remaining binding at 1 µM (FLT3(K663Q)): 97% | remaining binding at 1 µM (MKNK2): 91% | remaining binding at 1 µM (HUNK): 72% | remaining binding at 1 µM (NEK9): 94% | remaining binding at 1 µM (PFCDPK1(P.falciparum)): 54% | remaining binding at 1 µM (KIT(D816H)): 100% | remaining binding at 1 µM (ACVR2A): 89% | remaining binding at 1 µM (BMPR2): 100% | remaining binding at 1 µM (ULK3): 92% | GI50 (BaF3-TEL-EGFR): 5400 nM

Source: PMC5392334, “Discovery and characterization of a novel irreversible EGFR mutants selective and potent kinase inhibitor CHMFL-EGFR-26 with a distinct binding mode” (Oncotarget, 2017)
